Experimental findings from publication PMC12869562 (Research Square, 2026) are described below.

No end group written: not given here.

A short description of the series: In vitro plasma stability. To be noted: C57BL/6, mouse, read-out: half-life t1/2 (in vitro plasma) (converted). In kind it is in vitro ADME, mouse (C57BL/6). On the procedure: Each aliquot (50 μl) was mixed with 150 μl methanol, vortexed, spun, removed the supernatant and reconstituted the pellet with 150 μl 10% formic acid in water. The sample was vortexed and spun and a 100 μl aliquot was taken, diluted 1:1 with 10 mM ammonium bicarbonate, and analyzed by LC-MS/MS. Using the remaining vs. time dataset, we performed a first-order decay analysis by fitting a linear regression to the natural log-transformed percent remaining values (excluding 0% and t = 0 anchor point) to plot the graph.

As for SSMKLSFRARAYGFRGPGPQL [CST, Catestatin], the half-life at 5 μg/ml is 5.56 h.
